This note sets out measurements from publication PMC6292506 (Nature structural & molecular biology, 2018).

Experiment [1] deals with GFP-Cdc14 (Saccharomyces cerevisiae, UniProt Q00684). The experiment in a line: biochemical. The experiment is classed as binding.
For the next experiment, the target named is Cdc14 (Saccharomyces cerevisiae, UniProt Q00684). In kind it is biochemical. Particulars: for Dephosphorylation of pTP phosphopeptide by Cdc14: 1 µM Cdc14 (Supplementary Fig. 9d).
The next experiment concerns Cdc14 with Net1^1-600. The experiment is classed as biochemical, Saccharomyces cerevisiae. Particulars: 200 nM Net1^1-600; two independent experiments (Fig. 4c).
Another experiment deals with T1, His6-Net1^1-600 (S. cerevisiae, UniProt P47035 1-600).
T1 sequence (looked up): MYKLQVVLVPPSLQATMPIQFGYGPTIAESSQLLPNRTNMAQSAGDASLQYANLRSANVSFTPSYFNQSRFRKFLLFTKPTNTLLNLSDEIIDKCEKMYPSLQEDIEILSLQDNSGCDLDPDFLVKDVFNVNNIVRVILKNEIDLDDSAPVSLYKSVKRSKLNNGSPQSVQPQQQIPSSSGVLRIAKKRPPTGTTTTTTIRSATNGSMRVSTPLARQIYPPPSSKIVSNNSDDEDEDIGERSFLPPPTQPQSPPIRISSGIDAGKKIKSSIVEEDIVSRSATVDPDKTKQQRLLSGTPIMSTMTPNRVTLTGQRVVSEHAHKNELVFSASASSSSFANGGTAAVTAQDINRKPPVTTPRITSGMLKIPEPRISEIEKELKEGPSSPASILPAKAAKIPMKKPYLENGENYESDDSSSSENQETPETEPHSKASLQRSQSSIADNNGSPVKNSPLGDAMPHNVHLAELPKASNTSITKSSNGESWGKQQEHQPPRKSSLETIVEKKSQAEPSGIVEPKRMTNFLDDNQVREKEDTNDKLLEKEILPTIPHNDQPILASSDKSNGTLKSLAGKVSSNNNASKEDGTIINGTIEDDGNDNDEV
The experiment in a line: pull-down.

Experiment [2] deals with T2, GFP-Cdc14 (S. cerevisiae, UniProt Q00684 1-551).
T2 sequence (looked up): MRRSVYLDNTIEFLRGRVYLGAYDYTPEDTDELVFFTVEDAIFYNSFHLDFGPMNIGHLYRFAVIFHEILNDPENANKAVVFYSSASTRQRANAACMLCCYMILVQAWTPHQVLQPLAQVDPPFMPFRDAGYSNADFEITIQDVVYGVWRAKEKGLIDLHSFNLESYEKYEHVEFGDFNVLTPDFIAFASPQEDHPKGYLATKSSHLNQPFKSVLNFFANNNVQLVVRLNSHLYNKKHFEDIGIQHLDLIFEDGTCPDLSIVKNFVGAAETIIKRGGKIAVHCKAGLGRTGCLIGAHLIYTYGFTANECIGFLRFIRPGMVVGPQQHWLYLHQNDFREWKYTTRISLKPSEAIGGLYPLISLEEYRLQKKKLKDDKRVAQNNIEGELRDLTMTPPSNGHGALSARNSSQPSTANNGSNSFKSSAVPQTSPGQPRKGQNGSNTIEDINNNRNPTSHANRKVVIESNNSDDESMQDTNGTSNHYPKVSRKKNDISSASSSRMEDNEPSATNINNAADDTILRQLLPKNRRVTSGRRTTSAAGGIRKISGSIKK
The experiment in a line: MST.

Where a SMILES comes first, the peptide text is derived from it.

What is called Kd is the free concentration of one partner at which half of the binding sites on the other are occupied at equilibrium, for simple one-to-one binding. A higher Kd goes with weaker binding.

In the case of `CC(C)C[C@H](NC(=O)[C@H](CC(C)C)NC(=O)[C@@H]1CCCN1C(=O)[C@H](C)NC(=O)[C@H](CC(N)=O)NC(=O)[C@H](CCCCN)NC(=O)[C@H](Cc1ccccc1)NC(=O)[C@H](CO)NC(=O)[C@H](CCCCN)NC(=O)[C@@H](NC(=O)[C@@H](NC(=O)[C@H](CO)NC(=O)[C@@H]1CCCN1)[C@@H](C)O)[C@@H](C)O)C(=O)N[C@@H](C)C(=O)N1CCC[C@H]1C(=O)N1CCC[C@H]1C(=O)O` [Sic1 peptide] (H-PSTTKSFKNAPLLAPP-OH), at GFP-Cdc14 [1], the Kd came to 32.2 µM. On to “FTDVAAGNYPATPPPH-TSPLGpTPLAAFNGLTSPQRSPFPKSSVK [AxG…pTP control peptide]”, for which the “Dephosphorylation of pTP phosphopeptide by Cdc14” value on Cdc14 was “almost undetectable”. As for “FTDVPALNYPATPPPH-TSPLGpSPLAAFNGLTSPQRSPFPKSSVK [PxL…pSPxAA peptide]”, the “Behaviour at higher substrate concentrations” value on Cdc14 (pSPxAA phosphopeptide, 100 nM Cdc14, above 50 μM (Fig. 6a)) is reported as “apparent substrate inhibition”.

For “FTDVPALNYPATPPPHTSPLGpTPLAAFNGLTSPQRSPFP-KSSVK [PxL…pTP peptide]”, the “Dephosphorylation of pTP phosphopeptide by Cdc14” value at Cdc14 is recorded as “substantially enhanced”. For the molecule YVPAPAPTTPLNFDHP [scrambled peptide], in the experiment with Cdc14 with Net1^1-600, the “Effect of peptide on inhibition of Cdc14 p-NPP hydrolysis by Net1” value is on record as “observed to a much lesser extent”.

B1: GST-Cdc14 (enzyme, S. cerevisiae, UniProt Q00684 1-551, looked up)
chain: MRRSVYLDNTIEFLRGRVYLGAYDYTPEDTDELVFFTVEDAIFYNSFHLDFGPMNIGHLYRFAVIFHEILNDPENANKAVVFYSSASTRQRANAACMLCCYMILVQAWTPHQVLQPLAQVDPPFMPFRDAGYSNADFEITIQDVVYGVWRAKEKGLIDLHSFNLESYEKYEHVEFGDFNVLTPDFIAFASPQEDHPKGYLATKSSHLNQPFKSVLNFFANNNVQLVVRLNSHLYNKKHFEDIGIQHLDLIFEDGTCPDLSIVKNFVGAAETIIKRGGKIAVHCKAGLGRTGCLIGAHLIYTYGFTANECIGFLRFIRPGMVVGPQQHWLYLHQNDFREWKYTTRISLKPSEAIGGLYPLISLEEYRLQKKKLKDDKRVAQNNIEGELRDLTMTPPSNGHGALSARNSSQPSTANNGSNSFKSSAVPQTSPGQPRKGQNGSNTIEDINNNRNPTSHANRKVVIESNNSDDESMQDTNGTSNHYPKVSRKKNDISSASSSRMEDNEPSATNINNAADDTILRQLLPKNRRVTSGRRTTSAAGGIRKISGSIKK
For the molecule B1, the binding result with His6-Net1^1-600 was “binds”. For FTDVPALNYPATPPPH [Cbk1-derived PxL motif peptide (16-mer)], in the experiment with GFP-Cdc14 [2], the Kd turned out to be 6.1 µM.

Molecule Ac-KGKLILSSVPPLPYDE-NH2 [Kar9-derived PxL motif peptide] displayed a Kd with GFP-Cdc14 [2] of 6 µM.
